Source: patent US11234960B2, “Compositions and methods for improving mitochondrial function and treating neurodegenerative diseases and cognitive disorders” (Amazentis SA, priority 2010, dated 2022)

Tests used:
Type in all cases: in vivo
normal mice = test: Rotarod assay in normal mice; conditions: 90 mg/kg/day in diet for 3 months, four trials (FIG. 48)
Description: Beginning at 3 months of age, mice were fed either a standard control diet such as AIN-93G or a diet containing punicalagin to deliver a dose of 90 mg/kg/day for a period of 3 months.
To examine the effect of pomegranate derived compounds on muscle performance and motor skills, mice were tested on the rotarod behavioral assay. The rotarod apparatus consists of a rod with a diameter of 2 cm with 5 compartments, 5 cm wide. A mouse is placed on a rotating rod which is started at an initial speed of 5 rpm. The rod speed is gradually accelerated at a rate of 8 rpm/min. The latency to fall was measured with a cutoff time of 300 seconds. Mice were tested for four trials. The latency to fall is a measure of the muscle performance and motor skills of the mice, with a better performance reflected by a longer latency to fall. Both control untreated and punicalagin-treated mice were tested. […] Punicaligin-treated mice were able to remain on the rotarod for a longer time and at higher speeds compared to untreated mice during sequential trial periods (FIG. 48).

[1] = test system: maternally separated mice; test: Forced swim test in early-life stress mice; conditions: early-life stressed mice, 90 mg/kg/day in food (FIG. 41)
Description: At postnatal day 1, pups were culled to have 6 pups per mother. From postnatal day 1 to 14, unpredictable maternal separation (MS) of a period of 3 hours daily was carried out. Maternal separation was performed at random times (from 8 am to 2 pm) to avoid the habituation of the mother to the procedure. The protocol consisted of removing pups from their mother to another cage at room temperature for a 3 hour period, after which the pups were returned to their original nest. These groups are denoted as early-life stress in the figures. A control group of dam/pups was left undisturbed and is denoted in the figures as normal.
One week after maternal separation mice were separated into two groups. One control group received the standard mouse chow diet (Untreated), while the other group received the ellagitannin punicalagin admixed into the food and designed to deliver a dose of 90 mg/kg/day to the mice. Treatment with the diet began 1 week after the termination of the maternal separation treatment. […]
Animals were considered to be engaged in swimming and mobile if there was a clear displacement of the body. […] Animal behavior was recorded over a 6-minute test period using a camera and a mirror behind the cylinder. The first 2 minutes and the last 4 minutes of the swimming were analyzed separately for mouse swimming activity. […]

[2] = test system: C57BL/6J mice exposed to chronic unpredictable stress; test: Contextual fear conditioning in chronically stressed mice; conditions: 25 mg/kg/d in diet, daily exposure for four days (FIG. 31)
Description: Three weeks before the initiation of the chronic stress protocol mice were separated into four different groups. One group received standard mouse chow diet (Control), while the remaining three groups received varying doses of extract 1011, an extract derived from pomegranate juice. Low dose corresponded to an extract dose of 21 mg/kg/d of gallic acid equivalents of polyphenols (GAE PPE), the medium dose corresponded to an extract dose of 43 mg/kg/d of GAE PPE, the high dose corresponded to an extract dose of 86 mg/kg/d of GAE PPE (see Table 5).
Three weeks before the initiation of the chronic stress protocol, mice were separated into two groups. […]
The unpredictable chronic stress protocol involved exposing animals to a daily stressful situation at an unpredictable moment for 4 weeks (between 8 am and 4 pm, and randomly distributed over the 28 days). […] All animals were weighed and the state of their coat was evaluated on a regular basis (every 3-5 days). […]
Contextual fear conditioning was used to test the effect of pomegranate extract on anxiety induction (i.e., learned anxiety) in mice in response to contextual recognition. […] To determine the effect of chronic stress and the various doses of pomegranate extract on the level of anxiety induced by this contextual memory, the level of anxiety-induced behavior in response to this context was measured. […]

Compound | muscle performance and motor skills, latency to fall from rotarod (normal mice) | immobility / swimming activity in forced swim test [1] | extinction of memory of the adverse context (freezing) [2]
O=C1O[C@H]2[C@@H]3OC(=O)c4cc(O)c(O)c(O)c4-c4c(O)c(O)c5oc(=O)c6c(c(O)c(O)c7oc(=O)c4c5c76)-c4c(cc(O)c(O)c4O)C(=O)OC[C@H]3OC(O)[C@@H]2OC(=O)c2cc(O)c(O)c(O)c2-c2c1cc(O)c(O)c2O (mixture of isomers) [punicalagin, 2,3 hexahydroxydiphenoyl-4,6-gallagylglucose] | significantly improve muscle performance and motor skills | increased swimming activity to levels seen in non-stressed mice | –
O=c1oc2cc(O)ccc2c2ccc(O)cc12 [urolithin A, 3,8-Dihydroxydibenzo-α-pyrone] | – | – | significant improvement in adverse memory extinction
